Data on eight compounds can be found in PubChem BioAssay AID2060345 (Molecular Pharmacology Branch, DTP, NCI, 2025).

In the test the test system is MALME-3M multicell spheroids, viability. Description: Anticancer human tumor MALME-3M cell line growth inhibition [TAK].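 For all read-outs here: spheroids exposed to drugs for seven days before readout.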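 For viability, T/C: 100% = DMSO vehicle control viability.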 To be noted: for viability, T/C: stronger effect = lower value. The method in brief:
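Tumor cells were grown as spheroids with HUVEC and hMSC (60:25:15) and treated with targeted agents combined with TAK-243 or ipatasertib. Drugs were tested in half-log steps down from near the clinical Cmax, or from 10 microM where Cmax was unknown.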

Where [1] appears, read: curve of first compound, second compound 0.3 µM.
[2] abbreviates: curve of first compound, second compound 0.949 µM.
The mark [3] stands for this setting: curve of first compound, second compound 3 µM.
Where [4] appears, read: curve of first compound, second compound 9.49 µM.
[5] abbreviates: curve of first compound, second compound 30 µM.
Setting [6] is: second compound 0.3 µM, first compound 0.000316 µM.
Setting [7] is: second compound 0.3 µM, first compound 0.001 µM.
[8] abbreviates: second compound 0.3 µM, first compound 0.00316 µM.
[9] abbreviates: second compound 0.3 µM, first compound 0.01 µM.
The mark [10] stands for this setting: second compound 0.949 µM, first compound 0.000316 µM.
Where [11] appears, read: second compound 0.949 µM, first compound 0.001 µM.
[12] abbreviates: second compound 0.949 µM, first compound 0.00316 µM.
Where [13] appears, read: second compound 0.949 µM, first compound 0.01 µM.
[14] abbreviates: second compound 3 µM, first compound 0.000316 µM.
Setting [15] is: second compound 3 µM, first compound 0.001 µM.
The mark [16] stands for this setting: second compound 3 µM, first compound 0.00316 µM.
Where [17] appears, read: second compound 3 µM, first compound 0.01 µM.
Setting [18] is: second compound 9.49 µM, first compound 0.000316 µM.
The mark [19] stands for this setting: second compound 9.49 µM, first compound 0.001 µM.
[20] abbreviates: second compound 9.49 µM, first compound 0.00316 µM.
The mark [21] stands for this setting: second compound 9.49 µM, first compound 0.01 µM.
Where [22] appears, read: second compound 30 µM, first compound 0.000316 µM.
Setting [23] is: second compound 30 µM, first compound 0.001 µM.
The mark [24] stands for this setting: second compound 30 µM, first compound 0.00316 µM.
Where [25] appears, read: second compound 30 µM, first compound 0.01 µM.
The mark [26] stands for this setting: second compound 0.3 µM, first compound 0.0316 µM.
Setting [27] is: second compound 0.3 µM, first compound 0.1 µM.
The mark [28] stands for this setting: second compound 0.949 µM, first compound 0.0316 µM.
The mark [29] stands for this setting: second compound 0.949 µM, first compound 0.1 µM.
Setting [30] is: second compound 3 µM, first compound 0.0316 µM.
The mark [31] stands for this setting: second compound 3 µM, first compound 0.1 µM.
[32] abbreviates: second compound 9.49 µM, first compound 0.0316 µM.
Where [33] appears, read: second compound 9.49 µM, first compound 0.1 µM.
[34] abbreviates: second compound 30 µM, first compound 0.0316 µM.
Where [35] appears, read: second compound 30 µM, first compound 0.1 µM.

Where “and” joins values, the source holds several entries; their conditions need not be identical. Identical values can stand only once.

As usually defined, the IC50 is the concentration that gives 50% inhibition. A word on the viability, T/C: it is the result in the treated group divided by that in the control group, in per cent.

`CC(C)CC(NC(=O)C(Cc1ccccc1)NC(=O)c1cnccn1)B(O)O` (stereo not given) + CC(C)NCC(C(=O)N1CCN(c2ncnc3c2C(C)CC3O)CC1)c1ccc(Cl)cc1: the IC50 by setting is: under setting [1], 0.00251 µM; under setting [2], 0.00226 µM; under setting [3], 0.00229 µM; under setting [4], 0.00186 µM; under setting [5], 0.00105 µM. The viability, T/C (second compound 0.3 µM, first compound 31.6 pM) was 124%; the viability, T/C (second compound 0.3 µM, first compound 0.0001 µM) is 103%; the viability, T/C under setting [6] is 108%; the viability, T/C under setting [7] was 122%; the viability, T/C under setting [8] is 33.9%; the viability, T/C under setting [9] was 0.71%. Moreover, the viability, T/C runs as follows: (second compound 0.949 µM, first compound 31.6 pM) 113%; (second compound 0.949 µM, first compound 0.0001 µM) 110%; under setting [10], 107%; under setting [11], 111%; under setting [12], 25.4%; under setting [13], 0.85%. Moreover, the viability, T/C runs as follows: (second compound 3 µM, first compound 31.6 pM) 86.4%; (second compound 3 µM, first compound 0.0001 µM) 95.8%; under setting [14], 91.2%; under setting [15], 91.5%; under setting [16], 33.9%; under setting [17], 0.73%. Also, the viability, T/C is 81% (second compound 9.49 µM, first compound 31.6 pM); 87.5% (second compound 9.49 µM, first compound 0.0001 µM); 75.5% under setting [18]; 83.4% under setting [19]; 22.7% under setting [20]; 0.55% under setting [21]. In addition, the viability, T/C runs as follows: (second compound 30 µM, first compound 31.6 pM) 54.9%; (second compound 30 µM, first compound 0.0001 µM) 57.2%; under setting [22], 52%; under setting [23], 51.7%; under setting [24], 13.2%; under setting [25], 0.96%.
Turning to `COC1CC2CCC(C)C(O)(O2)C(=O)C(=O)N2CCCCC2C(=O)OC(C(C)CC2CCC(OCCO)C(OC)C2)CC(=O)C(C)C=C(C)C(O)C(OC)C(=O)C(C)CC(C)C=CC=CC=C1C` (stereo not given), the viability, T/C by setting is: (compound 0.000316 µM) 83% and 79.4%; (compound 0.001 µM) 66.2% and 59.1%; (compound 0.00316 µM) 58.1% and 59.4%; (compound 0.01 µM) 52.3% and 58.6%; (compound 0.0316 µM) 50.5% and 50.7%; (compound 0.1 µM) 44.2% and 44%. For the same compound, for the setting “curve of compound”, the IC50 is 0.0186 µM and 0.0281 µM.
Regarding `COc1c(OCCCN2CCOCC2)ccc2c3n(c(=NC(=O)c4cnc(N)nc4)nc12)CCN3`, the viability, T/C is, setting by setting: (compound 0.00316 µM) 92.7% and 95.3%; (compound 0.01 µM) 71.3% and 85.2%; (compound 0.0316 µM) 70.3% and 76.1%; (compound 0.1 µM) 51.1% and 48.3%; (compound 0.316 µM) 19% and 21.5%; (compound 1 µM) 8.97% and 8.52%. Besides, the IC50 (curve of compound) was 0.084 µM and 0.0929 µM.
For the compound `CCCS(=O)(=O)Nc1ccc(F)c(C(=O)c2c[nH]c3ncc(-c4ccc(Cl)cc4)cc23)c1F`, the viability, T/C was 26.3% and 29.5% (compound 0.316 µM); 22.6% and 22.5% (compound 1 µM); 19.4% and 20.7% (compound 3.16 µM); 15.4% and 17% (compound 10 µM); 19.3% and 3.37% (compound 31.6 µM); 15.6% and 16.2% (compound 100 µM). For the same compound, the IC50 (curve of compound) was under 0.316 µM.
On to `CC(C)(C)c1nc(-c2cccc(NS(=O)(=O)c3c(F)cccc3F)c2F)c(-c2ccnc(N)n2)s1`, for which the viability, T/C is 21.4% and 24.8% (compound 0.0316 µM); 22.8% and 21.5% (compound 0.1 µM); 20.7% and 21.4% (compound 0.316 µM); 22.4% and 21.4% (compound 1 µM); 21.2% and 23.6% (compound 3.16 µM); 29.8% and 27.6% (compound 10 µM). For the same compound, the IC50 (curve of compound) is under 0.0316 µM.
In the case of `CC(C)CC(NC(=O)CNC(=O)c1cc(Cl)ccc1Cl)B1OC(=O)CC(CC(=O)O)(C(=O)O)O1` (stereo not given) + CC(C)NCC(C(=O)N1CCN(c2ncnc3c2C(C)CC3O)CC1)c1ccc(Cl)cc1, the IC50 by setting is: under setting [1], 0.0168 µM; under setting [2], 0.0175 µM; under setting [3], 0.00934 µM; under setting [4], 0.0118 µM; under setting [5], under 0.000316 µM. The viability, T/C was 109% under setting [6]; 97.2% under setting [7]; 90.6% under setting [8]; 82.6% under setting [9]; 10.4% under setting [26]; 0.25% under setting [27]. In addition, the viability, T/C under setting [10] is 92.4%; the viability, T/C under setting [11] is 89%; the viability, T/C under setting [12] is 95.4%; the viability, T/C under setting [13] is 87.2%; the viability, T/C under setting [28] was 10.7%; the viability, T/C under setting [29] is 0.17%. Further, the viability, T/C by setting is: under setting [14], 90.5%; under setting [15], 77%; under setting [16], 77.5%; under setting [17], 49.1%; under setting [30], 6.98%; under setting [31], 0.17%. The viability, T/C was 70.9% under setting [18]; 68% under setting [19]; 64.8% under setting [20]; 57.6% under setting [21]; 5.18% under setting [32]; 0.17% under setting [33]. Also, the viability, T/C was 48.2% under setting [22]; 49.8% under setting [23]; 45.2% under setting [24]; 30.9% under setting [25]; 4.73% under setting [34]; 0.24% under setting [35].
For the compound `Cc1nc(NC(=O)N2CCCC2C(N)=O)sc1-c1ccnc(C(C)(C)C(F)(F)F)c1` (stereo not given) + CC(C)NCC(C(=O)N1CCN(c2ncnc3c2C(C)CC3O)CC1)c1ccc(Cl)cc1, the IC50 is over 10 µM under setting [1]; over 10 µM under setting [2]; over 10 µM under setting [3]; 4.31 µM under setting [4]; 0.355 µM under setting [5]. Also, the viability, T/C reads like this: under setting [26], 110%; under setting [27], 104%; (second compound 0.3 µM, first compound 0.316 µM) 97.7%; (second compound 0.3 µM, first compound 1 µM) 88.1%; (second compound 0.3 µM, first compound 3.16 µM) 72.5%; (second compound 0.3 µM, first compound 10 µM) 59.1%. Also, the viability, T/C was 107% under setting [28]; 103% under setting [29]; 86.3% (second compound 0.949 µM, first compound 0.316 µM); 90.7% (second compound 0.949 µM, first compound 1 µM); 75.5% (second compound 0.949 µM, first compound 3.16 µM); 55.4% (second compound 0.949 µM, first compound 10 µM). Besides, the viability, T/C is 94.3% under setting [30]; 88.6% under setting [31]; 79.3% (second compound 3 µM, first compound 0.316 µM); 75.2% (second compound 3 µM, first compound 1 µM); 73.8% (second compound 3 µM, first compound 3.16 µM); 53% (second compound 3 µM, first compound 10 µM). Moreover, the viability, T/C was 79.4% under setting [32]; 73% under setting [33]; 67.1% (second compound 9.49 µM, first compound 0.316 µM); 67.5% (second compound 9.49 µM, first compound 1 µM); 54.8% (second compound 9.49 µM, first compound 3.16 µM); 37.4% (second compound 9.49 µM, first compound 10 µM). The viability, T/C under setting [34] is 56.3%; the viability, T/C under setting [35] was 59.1%; the viability, T/C (second compound 30 µM, first compound 0.316 µM) is 47.1%; the viability, T/C (second compound 30 µM, first compound 1 µM) is 42%; the viability, T/C (second compound 30 µM, first compound 3.16 µM) was 40%; the viability, T/C (second compound 30 µM, first compound 10 µM) is 22%.
`Cc1nc(NC(=O)N2CCCC2C(N)=O)sc1-c1ccnc(C(C)(C)C(F)(F)F)c1` (stereo not given): the viability, T/C is 100% and 86.7% (compound 0.0316 µM); 98.8% and 96.3% (compound 0.1 µM); 83.6% and 72.6% (compound 0.316 µM); 70.6% and 81.7% (compound 1 µM); 61.6% and 68.2% (compound 3.16 µM); 50% and 41.9% (compound 10 µM). For the setting “curve of compound”, the IC50 is > 10 µM and 7.08 µM.
